Test results taken from paper PMC7306898, “Concentration-Dependent Activity of Hydromethylthionine on Clinical Decline and Brain Atrophy in a Randomized Controlled Trial in Behavioral Variant Frontotemporal Dementia” (Journal of Alzheimer's Disease, 2020).

Columns and labels:
bvFTD patients [1] = assay: Frontotemporal Dementia Rating Scale (FRS), 52-week Phase III trial; format: in vivo, human
From the text: (§1) The two doses were provided in identical blister packages as visually identical oral tablets to be taken for up to 52 weeks. The primary outcome was the Addenbrookes Cognitive Examination – Revised (ACE-R). The Functional Activities Questionnaire (FAQ) and reduction in progression of whole brain atrophy were alternative co-primary outcomes. Other outcomes included: Modified Alzheimer’s Disease Cooperative Study – Clinical Global Impression of Change (Modified-CGIC) determined by a third independent rater; Frontotemporal Dementia Rating Scale (FRS); MMSE (from MMSE items incorporated into ACE-R); Addenbrookes Cognitive Examination – III (a revised version of ACE-R which excludes MMSE items subject to copyright restrictions); change in brain volume measured by MRI in frontal and temporal lobes (FTV) and lateral ventricles (LVV); and the effect of hydromethylthionine in patients with known genetic mutations associated with bvFTD. Blood was collected prospectively for the purpose of population PK analyses.
(§2) The primary analyses were specified as a mixed model, repeated-measures analysis with an unstructured covariance matrix and no imputation for missing data. […]

AD patients = system: AD patients; set-up: method as in PMID 31658058; conditions: cited from earlier work
bvFTD patients [2] = assay: Addenbrookes Cognitive Examination – III (ACE-III), 52-week Phase III trial; format: in vivo, human
From the text: as §1, §2

bvFTD patients [3] = assay: Addenbrookes Cognitive Examination – Revised (ACE-R), 52-week Phase III trial TRx-237-007; format: in vivo, human
From the text: The study was designed as a 52-week Phase III, randomized, controlled, double-blind, parallel-group trial conducted between May 2013 and February 2016 at 70 sites in Canada, United States, Australia, Asia, and Europe. Eligible patients had to be younger than 80 years of age with a diagnosis of bvFTD according to criteria revised by the International bvFTD Criteria Consortium [[1, 50]], with Mini-Mental Status Examination (MMSE) score greater than or equal to 20 at screening. In order to limit inclusion of bvFTD phenocopy cases, there was an additional requirement that patients had to meet the criterion of having definite brain atrophy in frontal and/or temporal lobes scoring 2 or more on a scale previously developed by Kipps et al.. Concomitant use of acetylcholinesterase inhibitors (AChEIs) or memantine (or both) was permitted provided this was at a stable dose for at least 18 weeks before randomization to minimize any potential early symptomatic effects of these treatments. Concomitant use of antidepressant, antipsychotic (except clozapine or olanzapine), and sedative medications was also permitted at stable doses where clinically feasible. Each patient had one or more study partners participate with them in the trial as informants. […] A detailed list of inclusion and exclusion criteria is in the protocol provided in the Supplementary Material. […]
as §1, with “The primary outcome was the Addenbrookes Cognitive Examination – Revised (ACE-R). The Functional Activities Questionnaire (FAQ) and reduction in progression of whole brain atrophy were alternative co-primary outcomes.” left out, “Blood was collected prospectively for the purpose of population PK analyses.” left out

[4] = set-up: method as in PMID 31658058; conditions: cited from earlier work
[5] = 8 mg/day (n = 110), modeled change from baseline at 52 weeks
[6] = 200 mg/day (n = 104) vs 8 mg/day, 52 weeks

SMILES: CN(C)c1ccc2c(c1)Sc1cc(N(C)C)ccc1N2 [hydromethylthionine, leuco-methylthioninium bis(hydromethanesulphonate)]
- FRS: Decline±SEM for LMTM 8 mg/day group (bvFTD patients [1]; [5]): –0.1240±0.0136
- FRS: Difference±SEM from LMTM 8 mg/day for 200 mg/day (bvFTD patients [1]; [6]): 0.0075±0.0206
- steady state plasma levels with steep concentration-response relationships on cognitive and MRI outcomes in AD (AD patients; 8 mg/day dose, AD ref 49): 0.3 to 0.8 ng/mL
- estimated brain concentration required for pharmacological activity (AD patients): 0.02–0.06 μM
- plasma concentration threshold (Cmax,ss) identified in mild/moderate AD (AD patients): 0.373 ng/mL
- predicted optimal dose for treatment of AD (AD patients): about 16 mg/day
- dose sufficient to ensure that all patients have plasma levels above the threshold required for pharmacological activity (AD patients; combined AD and bvFTD populations ref 49): 16 mg/day
- plasma concentrations not associated with any additional benefit in AD (AD patients; doses 150–250 mg/day, AD ref 49): 4 to 21 ng/mL
- ACE-III: Decline±SEM for LMTM 8 mg/day group (bvFTD patients [2]; [5]): –10.70±1.55
- ACE-III: Difference±SEM from LMTM 8 mg/day for 200 mg/day (bvFTD patients [2]; [6]): 0.44±2.27
- ACE-R: Decline±SEM for LMTM 8 mg/day group (bvFTD patients [3]; 8 mg/day (n = 110), modeled change from baseline at 52 weeks, MITT): –9.98±1.39
- reduction in decline on the ACE-R scale (bvFTD patients [3]; 8 mg/day, plasma levels above vs below […] threshold): 45%
- ACE-R: Difference±SEM from LMTM 8 mg/day for 200 mg/day (bvFTD patients [3]; 200 mg/day (n = 104) vs 8 mg/day, 52 weeks, MITT): –0.49±2.10
- brain:plasma ratio compared to MTC [4]: ≥ 60 fold
